{"source": "patent US10323022B2", "about": "“Pyrrolidinyl urea, pyrrolidinyl thiourea and pyrrolidinyl guanidine compounds as TrkA kinase inhibitors” (Array BioPharma Inc., priority 2011, dated 2019)", "note": "pIC50: −log10 of the molar value.", "data": [{"target": "TrkA (Homo sapiens (Human), UniProt P04629)", "sequence (P04629 33-796)": "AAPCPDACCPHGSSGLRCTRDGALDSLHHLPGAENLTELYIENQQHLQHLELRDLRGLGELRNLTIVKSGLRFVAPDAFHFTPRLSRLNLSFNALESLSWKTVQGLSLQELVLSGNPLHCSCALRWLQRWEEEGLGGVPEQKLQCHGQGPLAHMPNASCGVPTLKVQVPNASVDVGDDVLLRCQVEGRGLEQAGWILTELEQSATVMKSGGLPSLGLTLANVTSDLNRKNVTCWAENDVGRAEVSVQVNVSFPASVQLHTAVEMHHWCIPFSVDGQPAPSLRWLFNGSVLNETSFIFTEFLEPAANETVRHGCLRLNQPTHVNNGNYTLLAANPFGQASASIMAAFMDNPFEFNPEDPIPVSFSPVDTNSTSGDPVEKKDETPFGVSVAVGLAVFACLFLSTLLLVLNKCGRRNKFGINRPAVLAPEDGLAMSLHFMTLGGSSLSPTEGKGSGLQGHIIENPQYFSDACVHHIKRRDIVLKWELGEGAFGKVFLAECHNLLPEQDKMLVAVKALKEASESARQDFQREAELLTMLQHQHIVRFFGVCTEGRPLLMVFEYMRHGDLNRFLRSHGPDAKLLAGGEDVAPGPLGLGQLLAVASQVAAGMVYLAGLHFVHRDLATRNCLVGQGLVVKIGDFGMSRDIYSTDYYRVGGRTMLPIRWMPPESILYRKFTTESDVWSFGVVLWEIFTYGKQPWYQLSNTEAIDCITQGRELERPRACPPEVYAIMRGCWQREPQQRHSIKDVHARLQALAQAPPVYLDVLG", "experiment": "TrkA Omnia Assay", "assay_type": "biochemical", "settings": "averaged IC50; 20 nM enzyme, 500 μM ATP, 10 μM peptide substrate", "how_it_was_run": "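Recombinant TrkA (20 nM) preincubated 10 min at ambient temperature with compound, then Omnia Tyr Peptide #4 (10 μM) and ATP (500 μM) added in 25 mM MOPS pH 7.5, 5 mM MgCl2, 0.005% Triton X-100. Fluorescence (ex 360/em 485 nm) followed continuously for 70 min; IC50 from initial rates by 4- or 5-parameter logistic fit.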", "values": [{"compound": "Cc1nn(-c2ccccc2)c(NC(=O)N[C@@H]2CN(c3cn[nH]c3)C[C@H]2c2cc(F)cc(F)c2)c1C", "note": "[Example 223, 1-((3S,4R)-4-(3,5-difluoro-phenyl)-1-(1H-pyrazol-4-yl)pyrrolidin-3-yl)-3-(3,4-dimethyl-1-phenyl-1H-pyrazol-5-yl)urea]", "pIC50": "> 7.00"}, {"compound": "Cc1nn(-c2ccccc2)c(NC(=O)N[C@@H]2CN(c3cn[nH]c3)C[C@H]2c2ccc(F)c(F)c2)c1C", "note": "[Example 224, 1-((3S,4R)-4-(3,4-difluorophenyl)-1-(1H-pyrazol-4-yl)pyrrolidin-3-yl)-3-(3,4-dimethyl-1-phenyl-1H-pyrazol-5-yl)urea]", "pIC50": "> 7.00"}, {"compound": "COCCCc1nn(-c2ccccc2)c(NC(=O)N[C@@H]2CN(c3cn[nH]c3)C[C@H]2c2ccc(F)c(F)c2)c1C", "note": "[Example 225, 1-((3S,4R)-4-(3,4-difluorophenyl)-1-(1H-pyrazol-4-yl)pyrrolidin-3-yl)-3-(3-(3-methoxypropyl)-4-methyl-1-phenyl-1H-pyrazol-5-yl)urea]", "pIC50": "> 7.00"}, {"compound": "COCCOc1nn(-c2ccccc2)c(NC(=O)N[C@@H]2CN(c3cn[nH]c3)C[C@H]2c2ccc(F)c(F)c2)c1C", "note": "[Example 226, 1-((3S,4R)-4-(3,4-difluorophenyl)-1-(1H-pyrazol-4-yl)pyrrolidin-3-yl)-3-(3-(2-methoxyethoxy)-4-methyl-1-phenyl-1H-pyrazol-5-yl)urea]", "pIC50": "> 7.00"}, {"compound": "Cc1c(OCC(C)(C)O)nn(-c2ccccc2)c1NC(=O)N[C@@H]1CN(c2cn[nH]c2)C[C@H]1c1ccc(F)c(F)c1", "note": "[Example 227, 1-((3S,4R)-4-(3,4-difluorophenyl)-1-(1H-pyrazol-4-yl)pyrrolidin-3-yl)-3-(3-(2-hydroxy-2-methylpropoxy)-4-methyl-1-phenyl-1H-pyrazol-5-yl)urea]", "pIC50": "> 7.00"}, {"compound": "CCOc1nn(-c2ccccc2)c(NC(=O)N[C@@H]2CN(c3ccnn3C)C[C@H]2c2ccccc2)c1C", "note": "[Example 228, 1-(3-ethoxy-4-methyl-1-phenyl-1H-pyrazol-5-yl)-3-((3S,4R)-1-(1-methyl-1H-pyrazol-5-yl)-4-phenylpyrrolidin-3-yl)urea]", "pIC50": "> 7.00"}, {"compound": "CCOc1nn(-c2ccccc2)c(NC(=O)N[C@H]2CN(c3ccnn3C)C[C@@H]2c2ccccc2)c1C", "note": "[Example 229, 1-(3-ethoxy-4-methyl-1-phenyl-1H-pyrazol-5-yl)-3-((3R,4S)-1-(1-methyl-1H-pyrazol-5-yl)-4-phenylpyrrolidin-3-yl)urea]", "pIC50": "> 7.00"}, {"compound": "CCOc1nn(-c2ccccc2)c(NC(=O)N[C@@H]2CN(c3ccnn3C)C[C@H]2c2cc(F)cc(F)c2)c1C", "note": "[Example 230, 1-((3S,4R)-4-(3,5-difluorophenyl)-1-(1-methyl-1H-pyrazol-5-yl)pyrrolidin-3-yl)-3-(3-ethoxy-4-methyl-1-phenyl-1H-pyrazol-5-yl)urea]", "pIC50": "6.00 to 7.00"}, {"compound": "CCOc1nn(-c2ccccc2)c(NC(=O)N[C@H]2CN(c3ccnn3C)C[C@@H]2c2cc(F)cc(F)c2)c1C", "note": "[Example 231, 1-((3R,4S)-4-(3,5-difluorophenyl)-1-(1-methyl-1H-pyrazol-5-yl)pyrrolidin-3-yl)-3-(3-ethoxy-4-methyl-1-phenyl-1H-pyrazol-5-yl)urea]", "pIC50": "> 7.00"}, {"compound": "CCOc1nn(-c2ccccc2)c(NC(=O)N[C@@H]2CN(c3ccccc3)C[C@H]2c2ccc(F)c(F)c2)c1C", "note": "[Example 232, 1-((3S,4R)-4-(3,4-difluorophenyl)-1-phenylpyrrolidin-3-yl)-3-(3-ethoxy-4-methyl-1-phenyl-1H-pyrazol-5-yl)urea]", "pIC50": "6.00 to 7.00"}, {"compound": "CCOc1nn(-c2ccccc2)c(NC(=O)N[C@@H]2CN(c3ccccc3OC)C[C@H]2c2ccc(F)c(F)c2)c1C", "note": "[Example 233, 1-((3S,4R)-4-(3,4-difluorophenyl)-1-(2-methoxyphenyl)pyrrolidin-3-yl)-3-(3-ethoxy-4-methyl-1-phenyl-1H-pyrazol-5-yl)urea]", "pIC50": "6.00 to 7.00"}, {"compound": "CCOc1nn(-c2ccccc2)c(NC(=O)N[C@@H]2CN(c3ccccc3F)C[C@H]2c2ccccc2)c1C", "note": "[Example 234, 1-(3-ethoxy-4-methyl-1-phenyl-1H-pyrazol-5-yl)-3-((3S,4R)-1-(2-fluorophenyl)-4-phenylpyrrolidin-3-yl)urea]", "pIC50": "6.00 to 7.00"}, {"compound": "CCOc1nn(-c2ccccc2)c(NC(=O)N[C@@H]2CN(c3ccc(F)cc3)C[C@H]2c2ccccc2)c1C", "note": "[Example 235, 1-(3-ethoxy-4-methyl-1-phenyl-1H-pyrazol-5-yl)-3-((3S,4R)-1-(4-fluorophenyl)-4-phenylpyrrolidin-3-yl)urea]", "pIC50": "6.00 to 7.00"}, {"compound": "CCOc1nn(-c2ccccc2)c(NC(=O)N[C@@H]2CN(c3ccccc3C)C[C@H]2c2ccccc2)c1C", "note": "[Example 236, 1-(3-ethoxy-4-methyl-1-phenyl-1H-pyrazol-5-yl)-3-((3S,4R)-1-(2-methylphenyl)-4-phenylpyrrolidin-3-yl)urea]", "pIC50": "6.00 to 7.00"}, {"compound": "CCOc1nn(-c2ccccc2)c(NC(=O)N[C@@H]2CN(c3ccccc3OC)C[C@H]2c2ccccc2)c1C", "note": "[Example 237, 1-(3-ethoxy-4-methyl-1-phenyl-1H-pyrazol-5-yl)-3-((3S,4R)-1-(2-methoxyphenyl)-4-phenylpyrrolidin-3-yl)urea]", "pIC50": "6.00 to 7.00"}, {"compound": "CCOc1nn(-c2ccccc2)c(NC(=O)N[C@@H]2CN(c3ccccc3Cl)C[C@H]2c2ccccc2)c1C", "note": "[Example 238, 1-(3-ethoxy-4-methyl-1-phenyl-1H-pyrazol-5-yl)-3-((3S,4R)-1-(2-chlorophenyl)-4-phenylpyrrolidin-3-yl)urea]", "pIC50": "6.00 to 7.00"}, {"compound": "CCOc1nn(-c2ccccc2)c(NC(=O)N[C@@H]2CN(c3ccccc3OC(F)(F)F)C[C@H]2c2ccccc2)c1C", "note": "[Example 239, 1-(3-ethoxy-4-methyl-1-phenyl-1H-pyrazol-5-yl)-3-((3S,4R)-4-phenyl-1-(2-(trifluoromethoxy)phenyl)pyrrolidin-3-yl)urea]", "pIC50": "6.00 to 7.00"}, {"compound": "CCOc1nn(-c2ccccc2)c(NC(=O)N[C@@H]2CN(c3c(F)cccc3F)C[C@H]2c2ccccc2)c1C", "note": "[Example 240, 1-((3S,4R)-1-(2,6-difluorophenyl)-4-phenylpyrrolidin-3-yl)-3-(3-ethoxy-4-methyl-1-phenyl-1H-pyrazol-5-yl)urea]", "pIC50": "6.00 to 7.00"}, {"compound": "CCOc1nn(-c2ccccc2)c(NC(=O)N[C@@H]2CN(c3ccnc(OC)c3)C[C@H]2c2ccccc2)c1C", "note": "[Example 241, 1-(3-ethoxy-4-methyl-1-phenyl-1H-pyrazol-5-yl)-3-((3S,4R)-1-(2-methoxypyridin-4-yl)-4-phenylpyrrolidin-3-yl)urea]", "pIC50": "6.00 to 7.00"}, {"compound": "CCOc1nn(-c2ccccc2)c(NC(=O)N[C@@H]2CN(c3cccnc3OC)C[C@H]2c2ccccc2)c1C", "note": "[Example 242, 1-(3-ethoxy-4-methyl-1-phenyl-1H-pyrazol-5-yl)-3-((3S,4R)-1-(2-methoxypyridin-3-yl)-4-phenylpyrrolidin-3-yl)urea]", "pIC50": "> 7.00"}, {"compound": "CCOc1ncccc1N1C[C@@H](NC(=O)Nc2c(C)c(OCC)nn2-c2ccccc2)[C@H](c2ccccc2)C1", "note": "[Example 243, 1-(3-ethoxy-4-methyl-1-phenyl-1H-pyrazol-5-yl)-3-((3S,4R)-1-(2-ethoxypyridin-3-yl)-4-phenylpyrrolidin-3-yl)urea]", "pIC50": "> 7.00"}, {"compound": "COc1ncccc1N1C[C@@H](NC(=O)Nc2c(C)c(-c3ccccc3)nn2-c2ccccc2)[C@H](c2ccccc2)C1", "note": "[Example 245, 1-((3S,4R)-1-(2-methoxypyridin-3-yl)-4-phenylpyrrolidin-3-yl)-3-(4-methyl-1,3-diphenyl-1H-pyrazol-5-yl)urea]", "pIC50": "6.00 to 7.00"}]}]}
